In US7041677B2, “Use of monochloroflosequinan in the treatment of sexual dysfunction” (R.T. Alamo Ventures I, LLC, priority 2002, dated 2006):
Several values for one entry are separate records, joined by “and”; a condition that tells them apart may be missing. Identical values can stand only once. Marks after values point to notes of the source that are not given here.

Test system: male Cynomolgus monkeys (Macaca fascicularis)
Assay: Erection monitoring after single intracavernosal dose
Assay type: in vivo
Set-up: key to Onset Score / Duration Score: 0: no response; erection but transient—less than 1 minute; 2: erection lasting at least 1 minute but less than 5 minutes; 3: erection lasting at least 5 minutes but less than 7 minutes; 4: erection lasting longer than 7 minutes
Conditions: for Onset of Erection: minutes post administration; for Erection Score: Erection Score=2D+O; for Erection Index: Erection Score/n, n=number of animals (4 monkeys); for inducing penile erections: Cynomolgus monkeys, intracavernosal, summary of Tables 4 & 5
Experimental: In this example, various halogenated derivatives of flosequinan were evaluated for their ability to induce penile erections. A single intracavernosal dose (of a given halogenated derivative of flosequinan) was administered to male Cynomolgus monkeys (Macaca fascicularis). The Cynomolgus monkey was selected because it is an appropriate established non-rodent species to be used as an erectile dysfunction model. Before the application of the test substances the possible erectile effect of dimethylsulfoxide 25% (DMSO) at a dose volume of 0.15 ml was assessed. (Concentrations of test compounds of less than 10 mg/ml were administered in 25% DMSO. Concentrations of 10 mg/ml or greater were administered in 100% DMSO). An initial dose level of 0.625 mg/kg of the test substance and the derivatives were used. If an erectile effect of the initial dose level was observed 1.25 mg/kg and finally 2.5 mg/kg of each test substance was used. Between each dose level and change of test substance there was a wash out phase of three days [except on Days 1 to 4 (Monochloroflosequinan Racemate) and days 40 to 43 (Monofluoroflosequinan) of the study where there was a wash out phase of only two days between treatments]. Dose volume: A dose volume of 0.15 ml per animal was used. The test substances were prepared according to the following scheme. For each test substance 10 mg was diluted in 1 ml of DMSO. After the test substance was completely dissolved the solution was diluted stepwise 1:2 with double distilled water to the required dose level. The test substance was formulated on the day of the dosing and stored at room temperature. No stability test was required when the test substances were formulated on the day of dosing. Remaining test substances were stored at approximately -80° C. Sufficient purpose-bred naive Cynomolgus monkeys (Macaca fascicularis) were obtained from a recognized supplier in order to provide 4 healthy male animals. At the start of study the animals were in the weight range of 4 to 7 kg and approximately 4 to 6 years old. The animals were housed in a climate controlled room to provide a minimum of 10 air changes per hour. Routinely the temperature and relative humidity ranges were between 19-25° C. and 30-70% respectively. Artificial lighting was controlled automatically to give a cycle of 12 hours light and 12 hours dark. The animals were housed singly in stainless steel cages (dimensions: 600 mm×600 mm×800 mm; E. Becker & Co. GmbH, 44579 Castrop-Rauxel, Germany). Each animal was offered twice daily between 50 to 70 g of a commercial pellet diet for primates (Ssniff P10, Ssniff Spezialdiäten GmbH, Ferdinand-Gabriel-Weg 16, 59494 Soest, Germany). Every three months diet was analyzed for specific contaminants. Tap water was provided ad libtum via an automatic watering system or bottles, except during urine collection. The water was periodically analyzed for specific contaminants found to be present in the diet or water at levels that might interfere with achieving the objective of the study. Clinical Observations: In addition to the initial pharmacological effect (penile erection) monitoring, all animals were observed twice daily for signs of ill health or overt toxicity. An individual record was maintained of the clinical condition of each animal. Post-dosing observations were performed at the discretion of the Study Director. All animals were examined at the beginning and the end of the working hours. […] Body weights were recorded once before dosing. Food consumption was not recorded. For proof of erection capability the animals were checked once pre-dose with electrostimulation using a rectal probe under sedation with […]. […] The onset post drug administration and duration of erection were recorded. Table 5 (below) provides an “Erection Score” and “Erection Index” for the same selected halogenated flosequinan derivatives presented in Table 5. […]

[1] = 2.5 mg/ml intracavernosal, monkey 11539M
[2] = 2.5 mg/ml intracavernosal, monkey 11543M
[3] = 2.5 mg/ml intracavernosal, monkey 11584M
[4] = 2.5 mg/ml intracavernosal, monkey 11590M
[5] = 10 mg/ml intracavernosal, monkey 11539M
[6] = 10 mg/ml intracavernosal, monkey 11543M
[7] = 10 mg/ml intracavernosal, monkey 11584M
[8] = 10 mg/ml intracavernosal, monkey 11590M
[9] = 0.625 mg/ml intracavernosal, monkey 11539M
[10] = 0.625 mg/ml intracavernosal, monkey 11543M
[11] = 0.625 mg/ml intracavernosal, monkey 11584M
[12] = 0.625 mg/ml intracavernosal, monkey 11590M

Cn1cc([S@+]([O-])CCl)c(=O)c2ccc(F)cc21 (single isomer, unassigned) [(+)-enantiomer of monochloroflosequinan]
Duration Erection [1]: <1 min
Duration Score [1]: 1 (erection but transient—less than 1 minute)
Onset Score [1]: 1 (erection onset longer than 10 minutes)
Onset of Erection [1]: 107* min
Erection Score [1]: 3
Duration Erection [2]: <1 min
Duration Score [2]: 1 (erection but transient—less than 1 minute)
Onset Score [2]: 1* (erection onset longer than 10 minutes)
Onset of Erection (2.5 mg/ml intracavernosal, monkey 11543M, listed as MONOCHLOROFLOSEQUINAN S(+)): 34* min and 38* min and 39^a* ejaculation min
Erection Score [2]: 3
Duration Score [3]: 1 (erection but transient—less than 1 minute)
Onset Score [3]: 1 (erection onset longer than 10 minutes)
Erection Score [3]: 3
Duration Score [4]: 3 (erection lasting at least 5 minutes but less than 7 minutes)
Onset Score [4]: 4 (erection onset 1 minute or less (immediate))
Erection Score [4]: 10
Erection Index (2.5 mg/ml intracavernosal): 4.8
Duration Score [5]: 0
Onset Score [5]: 4* (erection onset 1 minute or less (immediate))
Erection Score [5]: 4
Duration Score [6]: 0
Onset Score [6]: 0
Erection Score [6]: 0
Duration Erection [7]: <1 min
Duration Score [7]: 1 (erection but transient—less than 1 minute)
Onset Score [7]: 3* (erection onset between 2 and 4 minutes)
Erection Score [7]: 5
Duration Erection [8]: 8 min
Duration Score [8]: 4 (erection lasting longer than 7 minutes)
Onset Score [8]: 4 (erection onset 1 minute or less (immediate))
Onset of Erection [8]: immediate <1 min
Erection Score [8]: 12
Erection Index (10 mg/ml intracavernosal): 5.3
inducing penile erections: especially effective

Cn1cc([S+]([O-])C(Cl)Cl)c(=O)c2ccc(F)cc21 (stereo not shown) [dichloroflosequinan, 3-dichloromethylsulfinyl-7-fluoro-1-methyl-4-quinolone]
Duration Score [5]: 0
Onset Score [5]: 0
Erection Score [5]: 0
Duration Erection [6]: 1 min
Duration Score [6]: 2 (erection lasting at least 1 minute but less than 5 minutes)
Onset Score [6]: 4 (erection onset 1 minute or less (immediate))
Erection Score [6]: 8
Duration Erection [7]: 1 min
Duration Score [7]: 2 (erection lasting at least 1 minute but less than 5 minutes)
Onset Score [7]: 4 (erection onset 1 minute or less (immediate))
Onset of Erection [7]: immediate <1 min
Erection Score [7]: 8
Duration Erection [8]: 7 min
Duration Score [8]: 4 (erection lasting longer than 7 minutes)
Onset Score [8]: 4 (erection onset 1 minute or less (immediate))
Onset of Erection [8]: immediate <1 min
Erection Score [8]: 12
Erection Index (10 mg/ml intracavernosal): 7.0
inducing penile erections: especially effective

Cn1cc([S+]([O-])CCl)c(=O)c2ccc(F)cc21 (racemic) [monochloroflosequinan, 3-chloromethylsulfinyl-7-fluoro-1-methyl-4-quinolone]
Duration Score [9]: 0
Onset Score [9]: 0
Erection Score [9]: 0
Duration Erection [10]: <1 min-^
Duration Score [10]: 0
Onset Score [10]: 0
Onset of Erection [10]: 70^a* min
Erection Score [10]: 0
Duration Score [11]: 0
Onset Score [11]: 0
Erection Score [11]: 0
Duration Score [12]: 0
Onset Score [12]: 0
Erection Score [12]: 0
Erection Index (0.625 mg/ml intracavernosal): 0
Duration Score [1]: 0
Onset Score [1]: 0
Erection Score [1]: 0
Duration Score [2]: 0
Onset Score [2]: 0
Erection Score [2]: 0
Duration Score [3]: 0
Onset Score [3]: 0
Erection Score [3]: 0
Duration Score [4]: 0
Onset Score [4]: 0
Erection Score [4]: 0
Erection Index (2.5 mg/ml intracavernosal): 0
Duration Score [5]: 0
Onset Score [5]: 0
Erection Score [5]: 0
Duration Score [6]: 0
Onset Score [6]: 0
Erection Score [6]: 0
Duration Score [7]: 0
Onset Score [7]: 0
Erection Score [7]: 0
Duration Score [8]: 0
Onset Score [8]: 0
Erection Score [8]: 0
Erection Index (10 mg/ml intracavernosal): 0

Cn1cc([S@@+]([O-])CCl)c(=O)c2ccc(F)cc21 (single isomer, unassigned) [(−)-enantiomer of monochloroflosequinan]
Duration Score [5]: 0
Onset Score [5]: 0
Erection Score [5]: 0
Duration Score [6]: 0
Onset Score [6]: 0
Erection Score [6]: 0
Duration Score [7]: 0
Onset Score [7]: 0
Erection Score [7]: 0
Duration Erection [8]: 7 min
Duration Score [8]: 3 (erection lasting at least 5 minutes but less than 7 minutes)
Onset Score [8]: 4 (erection onset 1 minute or less (immediate))
Onset of Erection [8]: immediate <1 min
Erection Score [8]: 10
Erection Index (10 mg/ml intracavernosal): 2.5
